In patent US4562211A, “Pharmaceutically active 2-substituted-1-(omega-aminoalkoxy)benzenes” (Mitsubishi Chemical Industries, Ltd., priority 1976, dated 1985):
Where a name gives a salt, the structure may show the parent alone.

Experiments:
[1] = tested on: reserpine (5 mg/kg i.p.) induced hypothermia; experiment: Antireserpine activity in mice (antagonism of reserpine induced hypothermia), relative to Amitriptyline; type: in vivo; conditions: Amitriptyline=1
Description: The 2-substituted-1-(omega-aminoalkoxy)benzenes and the acid addition salts thereof may be purified by recrystallization employing a suitable solvent such as alcohol-ether.
The compounds were administered intraperitoneally and the activities of the compounds were compared with those of Amitriptyline.

[2] = tested on: electroshock induced tonic extensor; experiment: Anticonvulsant activity: antagonism of electroshock induced tonic extensor; type: in vivo; conditions: Mus musculus, po; mice; p.o.; dose preventing 50% of response; read-out: Anti-Convulsant Activity ED50
[3] = tested on: neurological deficit as measured by traction test; experiment: CNS depressant activity: muscle relaxant action, traction test; type: in vivo; conditions: Mus musculus, po, mice
[4] = tested on: spontaneous motor activity; experiment: CNS depressant activity: spontaneous motor activity depression (ANIMEX apparatus); type: in vivo; conditions: Mus musculus, po, mice
tremorine induced tremor = experiment: Central anticholinergic effect: antitremorine effect; type: in vivo; conditions: Mus musculus, po, mice
[5] = Acute toxicity in mice, LD50 (Litchfield-Wilcoxon); conditions: mouse, in vivo, ip
Description: The compounds have been tested in mice for antidepressant, sedative, anticonvulsant and anticholinergic activity. The compounds were administered intraperitoneally and the activities of the compounds were compared with those of Amitriptyline.
LD50 was calculated by Litchfield-Wilcoxon method.

Compound: CNCCCCOc1ccccc1Cc1ccc(C)cc1 [compound 4]
- Antireserpine activity, Relative Potency [1]: 0.44

Compound: CNCCCCOc1ccccc1Cc1ccccc1O [No. 8, 2-(4-methylaminobutoxy)-2'-hydroxydiphenylmethane]
- ED50 [2]: 190 mg/kg
- ED50 [3]: 390 mg/kg
- ED50 [4]: 175 mg/kg
- ED50 (tremorine induced tremor): > 200 mg/kg

Compound: CNCCCCOc1ccccc1Cc1ccc(Cl)cc1 [compound 5]
- Antireserpine activity, Relative Potency [1]: 0.44

Compound: CNCCCCOc1ccccc1Oc1ccccc1C [compound 11]
- Antireserpine activity, Relative Potency [1]: 0.65

Compound: CN(C)CCCCOc1ccccc1Cc1ccccc1O [compound 9]
- Antireserpine activity, Relative Potency [1]: 0.77

Compound: CCNCCCOc1ccccc1Oc1ccccc1C [compound 14]
- Antireserpine activity, Relative Potency [1]: 0.46

Compound: CCN(CC)CCCOc1ccccc1Oc1ccccc1C [compound 15]
- Antireserpine activity, Relative Potency [1]: 0.44

Compound: COc1ccc(Cc2ccccc2OCCCCN(CCO)CCO)cc1 [compound 6]
- Antireserpine activity, Relative Potency [1]: 0.44

Compound: CNCCCCOc1c(C)cccc1Cc1ccccc1 [No. 1, 2-(4-methylaminobutoxy)-3-methyldiphenylmethane hydrochloride]
- Antireserpine activity, Relative Potency [1]: 0.56
- LD50 [5]: 500 to 700 mg/kg

Compound: CCOc1ccccc1Oc1ccccc1OCCCCNC [compound 10]
- Antireserpine activity, Relative Potency [1]: 0.90

Compound: Cc1cccc(Cc2ccccc2)c1OCCCCN(C)C [No. 2, 2-(4-dimethylaminobutoxy)-3-methyldiphenylmethane]
- Antireserpine activity, Relative Potency [1]: 0.66
- LD50 [5]: 500 to 700 mg/kg

Compound: Cc1ccc(OCCCCN(C)C)c(Cc2ccccc2)c1 [compound 3]
- Antireserpine activity, Relative Potency [1]: 0.70
- LD50 [5]: 500 to 700 mg/kg

Compound: CNCCCCOc1ccccc1Cc1ccccc1O [compound 8]
- Antireserpine activity, Relative Potency [1]: 1.00
- LD50 [5]: 600 to 700 mg/kg

Compound: CNCCCCOc1ccccc1Cc1ccccc1OC [compound 7]
- Antireserpine activity, Relative Potency [1]: 0.85
- LD50 [5]: 600 mg/kg

Compound: Cc1ccccc1Oc1ccccc1OCCCN(C)C [compound 13]
- Antireserpine activity, Relative Potency [1]: 0.95

Compound: CN(C)CCC=C1c2ccccc2CCc2ccccc21 [Amitriptyline, reference compound]
- LD50 [5]: 300 mg/kg
- ED50 [2]: 19 mg/kg
- ED50 [3]: 40 mg/kg
- ED50 [4]: 28 mg/kg
- ED50 (tremorine induced tremor): 11 mg/kg

Compound: CNCCCOc1ccccc1Oc1ccccc1C [compound 12]
- Antireserpine activity, Relative Potency [1]: 1.12

Compound: Cc1ccccc1Oc1ccccc1OCCCN1CCCC1 [compound 16]
- Antireserpine activity, Relative Potency [1]: 0.42
